From PubChem BioAssay AID1259332 (Broad Institute, 2017)
Active and inactive are the calls of the source. The rule behind the calls is not given here.

The compounds below were run on B cell line, CD40 signaling inhibition reporter (assay: inhibitors of CD40 signaling, dose response, B cell lineage (AID 1259332);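 note: cells stimulated with CD40 ligand tCD40L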).
`COC(=O)c1nn(-c2ccc(-c3ccccc3)cc2)cc1O` showed an AC50 of 8.42 µM.
In the case of `Cc1ccc(OCCn2cnc3c(N)ncnc32)cc1`, the AC50 is reported as 0.649 µM.
In the case of `CCC(C)[C@H]1O[C@]2(CC[C@@H]1C)C[C@@H]1C[C@@H](C/C=C(\C)[C@@H](OC3C[C@H](OC)C(O[C@H]4C[C@H](OC)[C@@H](O)[C@H](C)O4)[C@H](C)O3)[C@@H](C)/C=C/C=C3\CO[C@@H]4[C@H](O)C(C)=C[C@@H](C(=O)O1)[C@]34O)O2` (some centres not stated), the AC50 is reported as > 20 µM (inactive).
In the case of `CC(C)(C)c1cc(C=C(C#N)C#N)cc(C(C)(C)C)c1O`, the AC50 is reported as 0.524 µM.
`CCc1cnc(N2[C@H](C#N)[C@H](c3ccc(C#Cc4ccccc4F)cc3)[C@H]2CO)s1` was tested, and the AC50 was 9.09 µM.
Work on `O=C(Nc1ccc2c(c1)OCCO2)C1CCCC1` yielded an AC50 of 5.46 µM.
For `C[C@@H]1CN([C@@H](C)CO)C(=O)c2cc(C#CCc3ccccc3)cnc2O[C@@H]1CN(C)C(=O)C1CCOCC1`, the AC50 was 7.23 µM.
`N#C[C@H]1N[C@H](CO)[C@H]1c1ccc(C#CC2CCCC2)cc1` showed an AC50 of 6.27 µM.
With `CCOC(=O)c1c(SCCN2CCCC2)n(-c2ccccc2)c(=S)n(-c2ccccc2)c1=O` the AC50 was > 20 µM (inactive).
`C[C@H]1CN([C@@H](C)CO)C(=O)c2c(c3ccccc3n2C)-c2ccccc2CO[C@@H]1CN(C)C(=O)Nc1cccc(C(F)(F)F)c1` gave an AC50 of 11.1 µM.
`Cc1ccnc(NC(=O)c2ccc(OCC3CCCO3)cc2)c1` (configuration not stated) showed an AC50 of 5.23 µM.
For `O=C(Nc1cccc(N2C(=O)C=CC2=O)c1)c1cccs1`, the AC50 was 1.68 µM.
In the case of `CC(=NNc1ccc2ccccc2n1)c1ccccc1O`, the AC50 is reported as 2.94 µM.
Work on `O=C(C1CC1)N1C[C@@H]2N[C@H](C1)C2c1ccc(-c2cccc(F)c2)cc1` (some centres not stated) yielded an AC50 of 6.91 µM.
For `CC1CC(C)(O)CC(C(O)CC2CC(=O)NC(=O)C2)C1=O` (configuration not stated), the AC50 was 0.0973 µM.
`O=C1c2ccccc2C(=O)C1c1ccc2ccccc2n1` showed an AC50 of 6.15 µM.
With `O=c1cc(-c2ccc(O)cc2)oc2ccc3ccccc3c12` the AC50 was 2.2 µM.
In the case of `O=C(Nc1ccccc1)N1CC(=O)N2[C@H](CO)[C@@H](c3ccc(C#CC4CCCCC4)cc3)[C@H]2C1`, the AC50 is reported as 11 µM.
With `N#C[C@@H]1[C@@H](c2ccc(C#CC3CCCCC3)cc2)[C@H](CO)N1C(=O)Nc1ccc(F)cc1` the AC50 was 6.51 µM.
`Cc1noc(C)c1S(=O)(=O)Nc1ccc2c(c1)C(=O)N([C@@H](C)CO)C[C@@H](C)[C@@H](CN(C)C(=O)Nc1cccc3ccccc13)OCCCC[C@H](C)O2` was tested, and the AC50 was 1.52 µM.
For `C[C@H](CO)N1C[C@H](C)[C@H](CN(C)S(=O)(=O)c2ccc([N+](=O)[O-])cc2)OCc2ccccc2-c2c(n(C)c3ccccc23)C1=O`, the AC50 was 9.57 µM.
With `O=C(Nc1ccccn1)c1ccc(-c2ccccc2)cc1` the AC50 was 2.35 µM.
For `CC1CC(C)C(=O)C(C(CC2CC(=O)NC(=O)C2)OC(=O)CC(=O)c2ccccc2)C1` (configuration not stated), the AC50 was 3.18 µM.
`c1ccn2cc(-c3ccc4c(c3)OCCO4)nc2c1` was tested, and the AC50 was 10.2 µM.
With `CCc1csc(N2[C@H](C#N)[C@H](c3ccc(C#Cc4ccc(F)cc4)cc3)[C@H]2CO)n1` the AC50 was > 20 µM (inactive).
`C[C@@H]1CN([C@@H](C)CO)C(=O)c2ccccc2-c2ccccc2CO[C@H]1CN(C)Cc1ccccc1C(F)(F)F` was tested, and the AC50 was 8.01 µM.
`C=C1C(=O)OC2C=C(CO)C3OC3C3OC3(C)CC(OC(=O)/C(=C/C)COC(C)=O)C12` (configuration not stated) was tested, and the AC50 was 2.02 µM.
Work on `C[C@@H]1CN([C@@H](C)CO)C(=O)c2c(c3ccccc3n2C)-c2ccccc2CO[C@H]1CN(C)Cc1cccc(C(F)(F)F)c1` yielded an AC50 of 10.7 µM.
`Cc1ccc(OC(=O)N(C)C[C@@H]2OCc3ccccc3-c3c(n(C)c4ccccc34)C(=O)N([C@@H](C)CO)C[C@H]2C)cc1` gave an AC50 of 7.62 µM.
`c1ccc(-c2nc(-c3ccccn3)no2)cc1` showed an AC50 of 3.98 µM.
In the case of `O=[N+]([O-])c1ccc(N2CCOCC2)c2c1no[n+]2[O-]`, the AC50 is reported as 1.76 µM.
With `C[C@H](CO)N1C[C@H](C)[C@@H](CN(C)Cc2cccc(C(F)(F)F)c2)OCc2ccccc2-c2c(n(C)c3ccccc23)C1=O` the AC50 was > 20 µM (inactive).
For `CC[C@@]1(O)C(=O)OCc2c1cc1n(c2=O)Cc2cc3ccccc3nc2-1`, the AC50 was 0.961 µM.
`O=C1/C(=C/c2ccccc2)C[C@@]2(O)C3Cc4ccc(O)c5c4[C@@]2(CCN3CC2CC2)[C@H]1O5` showed an AC50 of 1.75 µM.
For `CC(C)[C@H](N)C(=O)N[C@H]1CCC2C3CC=C4C[C@@H](O)CC[C@]4(C)C3CC[C@@]21C` (some centres not stated), the AC50 was 2.97 µM.
For `C[C@H]1CN([C@@H](C)CO)C(=O)Cc2cc(NC(=O)Cc3cn(C)c4ccccc34)ccc2O[C@H]1CN(C)Cc1ccc(C(F)(F)F)cc1`, the AC50 was > 20 µM (inactive).
`N#C[C@@H]1[C@H](c2ccc(C#CC3CCCCC3)cc2)[C@@H](CO)N1S(=O)(=O)c1ccccc1` showed an AC50 of 2.28 µM.
`C[C@H]1CN([C@@H](C)CO)C(=O)c2ccccc2-c2ccccc2CO[C@H]1CN(C)C(=O)[C@@H](Cc1ccccc1)N(C)C` was tested, and the AC50 was > 20 µM (inactive).
`O=C(/C=C/c1ccccc1)CC(O)(c1ccccc1)C(F)(F)C(F)F` (configuration not stated) showed an AC50 of 6.39 µM.
`C[C@@H]1CN([C@@H](C)CO)C(=O)c2c(c3ccccc3n2C)-c2ccccc2CO[C@H]1CN(C)C(=O)Nc1cccc(C(F)(F)F)c1` showed an AC50 of 9.25 µM.
For `Cc1ccc2nc(C(F)(F)F)c(C#N)c(N)c2c1`, the AC50 was 6.7 µM.
In the case of `O=C(C1CCC1)N1CCc2cc(S(=O)(=O)N3CCCCC3)ccc21`, the AC50 is reported as > 20 µM (inactive).
With `CC(=O)OCC(=O)C1(O)CCC2C3CCC4=CC(=O)CCC4(C)C3(Cl)C(O)CC21C` (configuration not stated) the AC50 was > 20 µM (inactive).
In the case of `CC1CC(C)C(=O)C(C(O)CC2CC(=O)NC(=O)C2)C1` (configuration not stated), the AC50 is reported as 0.196 µM.
`C[C@H]1CN([C@@H](C)CO)C(=O)c2c(c3ccccc3n2C)-c2ccccc2CO[C@H]1CN(C)C(=O)Nc1ccccc1C(F)(F)F` was tested, and the AC50 was > 20 µM (inactive).
With `CN1C(=O)c2cc(NC(=O)c3cccc(Cl)c3)ccc2OC[C@@H]2O[C@@H](CC(=O)NC3CCCCC3)CC[C@H]21` the AC50 was > 20 µM (inactive).
`C[C@@H]1CCCCO[C@H](CN(C)CC2CCCCC2)[C@H](C)CN([C@@H](C)CO)C(=O)c2cc(NC(=O)Nc3ccc(C(F)(F)F)cc3)ccc2O1` showed an AC50 of 8.6 µM.
For `CC(=NNC(=S)N1CC2CCC(CC2)C1)c1nccs1`, the AC50 was > 7 µM (inactive).
`Cc1cnc(NC(=O)c2ccc(OCC3CCCO3)cc2)s1` (configuration not stated) was tested, and the AC50 was 3.03 µM.
For `CC(=O)OCC12CC(OC(=O)CC(C)C)C(C)=CC1OC1C(O)C(OC(C)=O)C2(C)C12CO2` (configuration not stated), the AC50 was 2.74 µM.
In the case of `COc1cccc(S(=O)(=O)N(C)C[C@@H]2OCc3ccccc3-c3c(n(C)c4ccccc34)C(=O)N([C@H](C)CO)C[C@H]2C)c1`, the AC50 is reported as > 20 µM (inactive).
Work on `CO[C@H](CN(C)Cc1cc(F)ccc1F)[C@H](C)CN(C(=O)Nc1ccc(C(F)(F)F)cc1)[C@H](C)CO` yielded an AC50 of 8.88 µM.
Work on `COC(=O)C12OCC34C(CC5C(C)=C(O)C(=O)CC5(C)C3C(O)C1O)OC(=O)C(OC(=O)C=C(C)C)C24` (configuration not stated) yielded an AC50 of 0.479 µM.
`COC(=O)C1=C(C)NC(C)=C(C(=O)OCCCN2CCC(c3ccccc3)(c3ccccc3)CC2)[C@H]1c1cccc([N+](=O)[O-])c1` showed an AC50 of 11.4 µM.
`O=C1C=CC2C3C(=O)N(c4ccccc4)C(=O)C3C1N2Cc1ccccc1` (configuration not stated) showed an AC50 of 1.8 µM.
`NC(=NCCCCCCN=C(N)/N=C(\N)Nc1ccc(Cl)cc1)/N=C(\N)Nc1ccc(Cl)cc1` was tested, and the AC50 was > 20 µM (inactive).
In the case of `CC1=CC2OC3CC4OC(=O)C=CC=CC(C(C)O)OCC(O)C5(C)OC5C(=O)OCC2(CC1O)C4(C)C31CO1` (configuration not stated), the AC50 is reported as 0.0375 µM.
With `CC1CC(C)C(=NNC(N)=O)C(C(O)CC2CCC(=O)NC2=O)C1` (configuration not stated) the AC50 was 0.241 µM.
For `O=C(Nc1nnc(C2CC2)s1)C1CC(=O)N(c2ccc3c(c2)OCCO3)C1` (configuration not stated), the AC50 was > 20 µM (inactive).
Compound `C=CC[n+]1c(/C=C2\C=Cc3cc(C)ccc3N2CC)ccc2ccccc21` has an AC50 of 2.7 µM.
`O=C(C#Cc1ccccc1)c1ccccc1` showed an AC50 of 6.37 µM.
`O=C(COc1cccnc1[N+](=O)[O-])c1ccc(Cl)s1` showed an AC50 of 3.2 µM.
Compound `CC1OC(OC2C(O)CC(OC3C(O)CC(OC4CCC5(C)C(CCC6C5CCC5(C)C(C7=CC(=O)OC7)C(O)CC65O)C4)OC3C)OC2C)CC(O)C1O` (configuration not stated) has an AC50 of 0.943 µM.
`CC(C)CC#Cc1ccc([C@@H]2[C@H]3CN(C(=O)Nc4ccccc4)CCCCN3[C@H]2CO)cc1` was tested, and the AC50 was 9.52 µM.
`O=S(=O)(/C(=C\c1ccc(C(F)(F)F)cc1)c1nc2ccccc2[nH]1)c1ccccc1` was tested, and the AC50 was 2.26 µM.
In the case of `CCC(C)(O)C(=O)OC1C(=O)OC2CC3C(C)=CC(=O)C(O)C3(C)C3C4(O)OCC23C1C(C)C4O` (configuration not stated), the AC50 is reported as 0.0299 µM.
`CCOC(=O)c1cc2c(ccn2C)n1Cc1ccc(C#N)cc1` was tested, and the AC50 was > 20 µM (inactive).
`O=S(=O)(CCSc1ccccn1)c1nc2ccccc2s1` showed an AC50 of 8.22 µM.
In the case of `COc1ccc(S(=O)(=O)N(C)C[C@H]2Oc3ccc(NC(=O)Nc4ccc(C(F)(F)F)cc4)cc3C(=O)N([C@@H](C)CO)C[C@H]2C)cc1`, the AC50 is reported as > 20 µM (inactive).
With `N#Cc1cccc(-c2ccc(C3[C@H]4CNC[C@@H]3N4Cc3ccc4c(c3)OCO4)cc2)c1` (some centres not stated) the AC50 was > 20 µM (inactive).
With `c1ccc(-c2ccc(-c3ccccn3)nn2)nc1` the AC50 was 7.89 µM.
`CCCNC(=O)N1[C@@H](C#N)[C@H](c2ccc(-c3cccc(OC)c3)cc2)[C@@H]1CO` was tested, and the AC50 was 11 µM.
`COc1ccc(/C=C\c2nc(=O)c3ccccc3o2)cc1` gave an AC50 of 7.67 µM.
For `Cc1cccc(-c2nc3cc(NC(=O)C4CCCO4)ccc3o2)c1` (configuration not stated), the AC50 was > 20 µM (inactive).
`Cc1noc(C)c1S(=O)(=O)N(C)C[C@H]1OCc2ccccc2-c2c(n(C)c3ccccc23)C(=O)N([C@@H](C)CO)C[C@H]1C` showed an AC50 of 11.2 µM.
`CN(C)c1ccc(NC(=O)c2cnsn2)cc1` showed an AC50 of 6.15 µM.
With `O=C(C[C@@H]1C[C@H]2c3cc(NC(=O)Nc4ccc(C(F)(F)F)cc4)ccc3O[C@H]2[C@H](CO)O1)NCc1cc(F)ccc1F` the AC50 was > 20 µM (inactive).
In the case of `CC1(C)C(=O)C=C[C@@]2(C)C1C=C[C@]1(C)C2CC[C@@]2(C)[C@H](c3ccoc3)OC(=O)[C@H]3O[C@]321` (some centres not stated), the AC50 is reported as 5.24 µM.
`CC(=O)Nc1ccc(Sc2ccc([N+](=O)[O-])o2)cc1` showed an AC50 of 1.99 µM.
With `C[C@H]1O[C@@H](O[C@H]2[C@@H](O)C[C@H](O[C@H]3[C@@H](O)C[C@H](O[C@H]4CC[C@]5(C)C6C[C@@H](O)[C@]7(C)[C@@H](C8=CC(=O)OC8)CC[C@]7(O)C6CC[C@@H]5C4)O[C@@H]3C)O[C@@H]2C)C[C@H](O)[C@@H]1O` (some centres not stated) the AC50 was 2.59 µM.
For `c1ccc2nc(-c3nc4ccccc4o3)ccc2c1`, the AC50 was 4.54 µM.
`O=C1NC2c3c(I)sc(I)c3C(=O)C2O1` (configuration not stated) showed an AC50 of 3.2 µM.
In the case of `COc1ccc(C=Cc2ccc3ccccc3n2)c(OC)c1`, the AC50 is reported as 11.3 µM.
`C=C1C(=O)OC2CC1C(O)CC(C)=CCCC(C)=CC(O)CC2C` (configuration not stated) was tested, and the AC50 was 6 µM.
Compound `Oc1ccc2c(c1)OCC1(O)Cc3cc(O)c(O)cc3C21` (configuration not stated) has an AC50 of 2.81 µM.
`CCOc1ccc(OCc2cccc(C(=O)N3CCOCC3)c2)cc1` showed an AC50 of 2.92 µM.
`CC(=O)O[C@@H]1C[C@@]2(C)[C@H](c3ccoc3)C[C@H]3O[C@]32[C@]2(C)C(=O)C(=O)C3C(C)(C)C(=O)C=C[C@]3(C)C12` (some centres not stated) was tested, and the AC50 was 1.22 µM.
